Data on 11 molecules can be found in patent US12551475B2, “Methods and compositions for treating RNA viral infections” (Model Medicines, Inc., priority 2020, dated 2026).

Structures can show the parent of a compound that is named as a salt. Where two headings read alike, the source gives them in different places. Where only a bound is given, the exact number is not on record here.

For data set [1], the target named is transient receptor potential canonical channel 5 (TRPC5) (Homo sapiens, UniProt Q9UL62). The conditions noted are these: cited from earlier work.
Another data set concerns the target HIV aspartyl protease (Human immunodeficiency virus type 1 group M subtype B, UniProt P04585). The following applies: cited from earlier work.
For another data set, the system named is HBV. The following applies: mouse, in vivo; cited from earlier work.
The next data set concerns hepatitis B virus (HBV). The conditions noted are these: HepG2 2.2.15 cells infected with HBV; cited from earlier work.
For a further data set, the system named is HepG2 2.2.15 cells. The conditions noted are these: cited from earlier work.
Data set [2] addresses mitochondrial long-chain 3-ketoacyl thiolase (Homo sapiens, UniProt P55084). The following applies: cited from earlier work.
The target of a further data set is T1, ACE2 (Homo sapiens, UniProt Q9BYF1).
T1 construct: purchased BPS Bioscience 79923 (assay kit)
The data set can be described thus: ACE2 activity assay. The class given is biochemical. From the text:
The ACE2 Activity Assay described in this example is designed to measure the exopeptidase activity of ACE2 for screening and profiling applications. The ACE2 assay can be performed in a convenient 96-well format, with purified ACE2, its substrate, and ACE2 buffer for 96 reactions. See https://bpsioscience.com/ace2-inhibitor-screening-assay-kit-79923
ACE2, ACE2 Fluorogenic Substrate, ACE2 buffer, 96-well black microplate. Adjustable micropipettor and sterile tips and Fluorescent microplate reader.
All Samples and Controls were Tested in Duplicate.
• 1. Thawed ACE2 on ice. Upon first thaw, tube containing enzyme was briefly spun to recover full contents of the tube. Note: ACE2 is sensitive to freeze/thaw cycles. • 2. Prepared Enzyme solution (0.5 ng/μl ACE2) by diluting ACE2 in ACE2 Buffer. • 3. Added 20 μl of Enzyme solution (0.5 ng/μl ACE2) to each well designated “Positive Control” and “Test Inhibitor,” and 20 μl of ACE2 buffer to each well designated “Blank.” • 4. Added 5 μl of Test Inhibitor solution to each well designated “Test Inhibitor.” For the wells labeled “Positive Control” and “Blank,” added 5 μl of 10% DMSO in water (Inhibitor buffer). The final concentration of DMSO in the reaction was kept ≤1%. • 5. Added 25 μl of ACE2 Fluorogenic Substrate to all wells. Protected from light and reaction was incubated at room temperature for 60 minutes.
• 6. The fluorescence intensity of the samples (λexcitation=555 nm; λemission=585 nm) was read in an appropriate microplate reader. Data Analysis
All of the enzyme activity assays were performed in duplicates at each concentration. The fluorescent intensity data were analyzed using the computer software Graphpad Prism. In the absence of the compound, the fluorescent intensity (Ft) in each data set was defined as 100% activity. In the absence of the enzyme, the fluorescent intensity (Fb) in each data set was defined as 0% activity. The percent activity in the presence of each compound was calculated according to the following equation: % activity=(F−Fb)/(Ft−Fb), where F=the fluorescent intensity in the presence of the compound.
The values of percentage activity were plotted on a bar graph.

Another data set concerns Notch signaling. The following applies: cited from earlier work.
In another data set the target is γ-secretase. The following applies: cited from earlier work.
The subject of the next data set is S. epidermidis. The following applies: various strains; cited from earlier work.
The test system of the next data set is S. aureus. The conditions noted are these: various strains; cited from earlier work.
In another data set the test system is S. viridans. The following applies: various strains; cited from earlier work.
Another data set concerns S. pneumoniae. The conditions noted are these: various strains; cited from earlier work.
The test system of data set [3] is HT-29 human colon adenocarcinoma cells. The following applies: read-out: IC50 (cytotoxicity); cited from earlier work.
The test system is the same in data set [4]. The conditions noted are these: read-out: IC50 (DNA damage); cited from earlier work.
For data set [5] the following is noted: 20 mg/kg saquinavir with 50 mg/kg ritonavir, mice; cited from earlier work.
A further data set concerns the target HIV-2 protease (Human immunodeficiency virus type 2 subtype A, UniProt P04584). The following applies: cited from earlier work.
A further data set concerns HIV-1. The following applies: MT-4 cells; cited from earlier work.
The target in data set [6] is lysophosphatidic acyl transferase (LPAAT). The conditions noted are these: LPS-activated LPAAT; read-out: IC50 (generation of phosphatidic acid); cited from earlier work.
The target in data set [7] is human acidic mammalian chitinase (Homo sapiens, UniProt Q9BZP6). The conditions noted are these: cited from earlier work.
For data set [8], the system named is isolated peripheral blood mononuclear cells. The conditions noted are these: cited from earlier work.
A further data set has as its system MCF-7:C cells. The following applies: 10 nM; cited from earlier work.

T1 sequence (Q9BYF1 18-805): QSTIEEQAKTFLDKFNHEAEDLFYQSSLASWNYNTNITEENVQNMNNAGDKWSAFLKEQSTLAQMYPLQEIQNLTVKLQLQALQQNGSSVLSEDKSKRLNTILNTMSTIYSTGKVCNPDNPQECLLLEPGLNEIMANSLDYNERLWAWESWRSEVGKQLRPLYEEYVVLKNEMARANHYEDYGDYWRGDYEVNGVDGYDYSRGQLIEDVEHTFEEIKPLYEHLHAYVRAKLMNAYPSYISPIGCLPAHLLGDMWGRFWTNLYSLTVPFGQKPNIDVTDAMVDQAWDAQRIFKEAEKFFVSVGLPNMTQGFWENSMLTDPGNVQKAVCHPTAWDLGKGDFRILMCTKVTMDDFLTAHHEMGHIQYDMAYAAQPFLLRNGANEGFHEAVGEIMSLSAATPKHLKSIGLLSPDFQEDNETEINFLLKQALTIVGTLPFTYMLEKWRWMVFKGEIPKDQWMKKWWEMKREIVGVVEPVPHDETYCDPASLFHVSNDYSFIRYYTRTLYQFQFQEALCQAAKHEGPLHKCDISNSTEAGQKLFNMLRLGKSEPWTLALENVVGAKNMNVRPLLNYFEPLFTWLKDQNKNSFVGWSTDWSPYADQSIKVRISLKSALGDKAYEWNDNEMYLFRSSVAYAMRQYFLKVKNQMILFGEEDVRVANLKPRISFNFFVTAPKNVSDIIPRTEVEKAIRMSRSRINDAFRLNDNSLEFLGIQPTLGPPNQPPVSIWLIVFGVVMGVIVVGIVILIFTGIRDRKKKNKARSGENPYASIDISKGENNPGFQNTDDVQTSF
Chain of HIV-2 protease (P04584 514-612 limits assumed): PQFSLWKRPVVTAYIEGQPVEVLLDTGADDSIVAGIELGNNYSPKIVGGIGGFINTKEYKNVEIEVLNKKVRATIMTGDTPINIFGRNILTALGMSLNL
Chain of human acidic mammalian chitinase (Q9BZP6 22-476): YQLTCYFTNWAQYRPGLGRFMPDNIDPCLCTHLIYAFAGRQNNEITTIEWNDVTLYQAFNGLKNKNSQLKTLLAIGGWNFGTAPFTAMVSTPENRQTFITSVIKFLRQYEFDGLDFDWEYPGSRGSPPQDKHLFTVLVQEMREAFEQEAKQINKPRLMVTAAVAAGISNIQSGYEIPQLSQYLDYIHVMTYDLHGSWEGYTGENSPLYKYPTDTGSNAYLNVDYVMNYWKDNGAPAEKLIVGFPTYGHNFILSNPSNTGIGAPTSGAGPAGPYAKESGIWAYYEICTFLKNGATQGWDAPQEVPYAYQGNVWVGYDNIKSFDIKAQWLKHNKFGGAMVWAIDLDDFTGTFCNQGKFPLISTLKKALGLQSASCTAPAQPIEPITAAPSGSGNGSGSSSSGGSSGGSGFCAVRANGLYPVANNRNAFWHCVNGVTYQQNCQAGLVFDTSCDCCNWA
Chain of mitochondrial long-chain 3-ketoacyl thiolase (P55084 34-474): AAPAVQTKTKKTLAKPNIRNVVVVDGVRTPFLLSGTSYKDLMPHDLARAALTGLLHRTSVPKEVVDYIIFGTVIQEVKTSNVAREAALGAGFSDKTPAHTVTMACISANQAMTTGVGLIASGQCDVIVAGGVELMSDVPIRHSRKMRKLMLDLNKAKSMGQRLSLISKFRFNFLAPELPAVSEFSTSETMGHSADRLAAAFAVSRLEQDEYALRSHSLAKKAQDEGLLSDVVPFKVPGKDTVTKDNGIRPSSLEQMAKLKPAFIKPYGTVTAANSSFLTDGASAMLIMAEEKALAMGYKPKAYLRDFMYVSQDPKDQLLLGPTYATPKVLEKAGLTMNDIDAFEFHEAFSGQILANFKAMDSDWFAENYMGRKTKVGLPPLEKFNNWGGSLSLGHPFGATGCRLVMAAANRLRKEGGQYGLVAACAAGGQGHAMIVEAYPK
Chain of mitochondrial long-chain 3-ketoacyl thiolase (P40939 37-763 partner): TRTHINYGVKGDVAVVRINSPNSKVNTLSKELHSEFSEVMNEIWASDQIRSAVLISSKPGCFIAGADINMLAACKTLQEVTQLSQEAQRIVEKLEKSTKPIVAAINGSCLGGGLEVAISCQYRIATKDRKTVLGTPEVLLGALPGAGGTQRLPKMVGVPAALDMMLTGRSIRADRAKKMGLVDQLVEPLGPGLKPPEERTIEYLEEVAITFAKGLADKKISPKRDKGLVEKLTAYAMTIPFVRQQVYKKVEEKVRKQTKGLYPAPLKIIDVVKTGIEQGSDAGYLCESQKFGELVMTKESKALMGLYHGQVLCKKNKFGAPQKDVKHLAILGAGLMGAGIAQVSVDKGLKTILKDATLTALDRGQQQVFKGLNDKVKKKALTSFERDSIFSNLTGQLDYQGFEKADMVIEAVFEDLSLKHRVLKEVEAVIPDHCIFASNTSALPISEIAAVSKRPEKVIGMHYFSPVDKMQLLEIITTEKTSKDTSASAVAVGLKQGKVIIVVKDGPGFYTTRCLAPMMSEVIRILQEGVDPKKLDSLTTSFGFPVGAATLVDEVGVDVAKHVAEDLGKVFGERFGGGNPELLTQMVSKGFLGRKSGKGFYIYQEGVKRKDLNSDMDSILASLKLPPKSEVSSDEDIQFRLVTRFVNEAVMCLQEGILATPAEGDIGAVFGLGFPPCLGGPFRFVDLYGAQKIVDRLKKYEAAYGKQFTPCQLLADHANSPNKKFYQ
Chain of transient receptor potential canonical channel 5 (TRPC5) (Q9UL62 whole entry, species assumed): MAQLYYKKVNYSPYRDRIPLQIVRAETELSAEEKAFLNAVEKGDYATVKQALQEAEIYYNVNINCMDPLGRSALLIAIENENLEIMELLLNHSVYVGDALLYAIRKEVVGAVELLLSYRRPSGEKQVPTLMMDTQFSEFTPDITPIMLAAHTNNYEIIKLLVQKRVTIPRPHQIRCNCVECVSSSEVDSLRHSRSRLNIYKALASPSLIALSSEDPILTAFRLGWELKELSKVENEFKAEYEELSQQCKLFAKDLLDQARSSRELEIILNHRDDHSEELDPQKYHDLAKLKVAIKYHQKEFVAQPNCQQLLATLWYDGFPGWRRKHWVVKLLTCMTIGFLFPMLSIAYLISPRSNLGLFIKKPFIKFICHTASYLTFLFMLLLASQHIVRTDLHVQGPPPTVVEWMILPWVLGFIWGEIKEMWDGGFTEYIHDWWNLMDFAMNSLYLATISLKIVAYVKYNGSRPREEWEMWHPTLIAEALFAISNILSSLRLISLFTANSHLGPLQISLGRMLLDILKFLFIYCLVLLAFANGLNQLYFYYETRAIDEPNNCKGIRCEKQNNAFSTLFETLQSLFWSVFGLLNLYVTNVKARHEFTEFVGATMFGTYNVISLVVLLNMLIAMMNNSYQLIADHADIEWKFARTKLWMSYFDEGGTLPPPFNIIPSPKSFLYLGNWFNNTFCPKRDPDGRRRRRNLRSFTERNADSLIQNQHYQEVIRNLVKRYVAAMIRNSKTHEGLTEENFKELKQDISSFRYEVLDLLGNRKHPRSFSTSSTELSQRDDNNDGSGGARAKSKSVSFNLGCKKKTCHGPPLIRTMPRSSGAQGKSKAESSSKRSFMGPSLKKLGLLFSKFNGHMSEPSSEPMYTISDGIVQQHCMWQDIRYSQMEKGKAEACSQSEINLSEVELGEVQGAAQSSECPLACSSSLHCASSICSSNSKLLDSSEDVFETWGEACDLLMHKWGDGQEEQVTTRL

Take `Clc1ccc(Cn2c(CN3CCCC3)nc3ccccc32)cc1` [Clemizole, 1-[(4-chlorophenyl)methyl]-2-(1-pyrrolidinylmethyl)-1H-benzimidazole, monohydrochloride]: the IC50 in data set [1] is 1 to 1.3 µM.

The Ki is the equilibrium dissociation constant of an inhibitor or competing ligand from its target. In the case of `CCC[C@@]1(CCc2ccccc2)CC(O)=C([C@H](CC)c2cccc(NS(=O)(=O)c3ccc(C(F)(F)F)cn3)c2)C(=O)O1` [Tipranavir, N-[3-[(1R)-1-[(6R)-5,6-dihydro-4-hydroxy-2-oxo-6-(2-phenylethyl)-6-propyl-2H-pyran-3-yl]propyl]phenyl]-5-(trifluoromethyl)-2-pyridinesulfonamide], the Ki on HIV aspartyl protease was below 0.001 µM.

One may read the EC50 as the concentration giving half of the maximal effect. As usually defined, the CC50 is the concentration giving 50% cytotoxicity. On to `CC(C)(C)C(=O)OCOP(=O)(COCCn1cnc2c(N)ncnc21)OCOC(=O)C(C)(C)C` [Adefovir dipivoxil, 2,2-dimethyl-propanoic acid, 1,1′-[[[[2-(6-amino-9H-purin-9-yl)ethoxy]methyl]phosphinylidene]bis(oxymethylene)]ester], for which the ED50 in the data set on HBV is given as 0.2 μmol/kg per day. Also, the half-maximal effective concentration (EC50) in the data set with hepatitis B virus (HBV) is 0.517 µM. The 50% cytotoxic concentration (CC50) in the data set on HepG2 2.2.15 cells was 540 µM.

`COc1ccc(CN2CCNCC2)c(OC)c1OC` [Trimetazidine (hydrochloride), 1-[(2,3,4-trimethoxyphenyl)methyl]-piperazine, dihydrochloride]: the IC50 in data set [2] was 0.075 µM.

Take `CC(C)[C@H](O)C(=O)N[C@@H](C)C(=O)N[C@@H]1C(=O)N(C)CCc2ccccc21` [Semagacestat, (2S)-2-hydroxy-3-methyl-N-[(1S)-1-methyl-2-oxo-2-[[(1S)-2,3,4,5-tetrahydro-3-methyl-2-oxo-1H-3-benzazepin-1-yl]amino]ethyl]-butanamide]: the “ACE2 Activity (Fluorescence count) Repeat 1” value at ACE2 (Semagacestat 0.00586 μM, Repeat 1) came out at 16794; on ACE2 (Semagacestat 0.0117 μM, Repeat 1), 17480; at ACE2 (Semagacestat 0.0234 μM, Repeat 1) it was 17334; at ACE2 (Semagacestat 0.188 μM, Repeat 1), 16603. Also, the activity at 0.00586 µM at ACE2 (Semagacestat 0.00586 μM, Repeat 1, read-out: % Activity Repeat 1) is 99%; on ACE2 (Semagacestat 0.00586 μM, Repeat 2, read-out: % Activity Repeat 2), 104%. The “ACE2 Activity (Fluorescence count) Repeat 2” value on ACE2 (Semagacestat 0.00586 μM, Repeat 2) was 17665; at ACE2 (Semagacestat 0.0117 μM, Repeat 2), 17772; at ACE2 (Semagacestat 0.0234 μM, Repeat 2) it was 17846; on ACE2 (Semagacestat 0.188 μM, Repeat 2) it was 16796. For the same molecule, the activity at 0.0117 µM on ACE2 (Semagacestat 0.0117 μM, Repeat 1, read-out: % Activity Repeat 1) came to 103%; on ACE2 (Semagacestat 0.0117 μM, Repeat 2, read-out: % Activity Repeat 2), 105%. Also, the activity at 0.0234 µM on ACE2 (Semagacestat 0.0234 μM, Repeat 1, read-out: % Activity Repeat 1) came to 102%; at ACE2 (Semagacestat 0.0234 μM, Repeat 2, read-out: % Activity Repeat 2), 105%. Further, the activity at 0.188 µM at ACE2 (Semagacestat 0.188 μM, Repeat 1, read-out: % Activity Repeat 1) was found to be 97%; at ACE2 (Semagacestat 0.188 μM, Repeat 2, read-out: % Activity Repeat 2), 99%. Also, the activity at […] came out at 85% at ACE2 (Semagacestat 0.75 μM, Repeat 1, read-out: % Activity Repeat 1); 98% at ACE2 (Semagacestat 0.75 μM, Repeat 2, read-out: % Activity Repeat 2); 78% at ACE2 (Semagacestat 1.5 μM, Repeat 1, read-out: % Activity Repeat 1); 85% at ACE2 (Semagacestat 1.5 μM, Repeat 2, read-out: % Activity Repeat 2). In addition, at ACE2 (test range 0.0029-1.5), the “effect on ACE2 activity (in words)” value is on record as “inhibited ACE2 activity”. Besides, the IC50 in the data set with Notch signaling is 0.0141 µM; at γ-secretase (Aβ38, read-out: IC50 (production of Aβ38)) it was 0.012 µM; at γ-secretase (Aβ40, read-out: IC50 (production of Aβ40)) it was 0.0121 µM; on γ-secretase (Aβ42, read-out: IC50 (production of Aβ42)), 0.0109 µM.

The MIC is the smallest concentration in the dilution series that meets the test's criterion for growth inhibition. As for `CCC[C@@H]1C[C@@H](C(=O)N[C@@H]([C@H]2O[C@H](SC)[C@H](O)[C@@H](O)[C@H]2O)[C@H](C)Cl)N(C)C1` [Clindamycin, methyl 7-chloro-6,7,8-trideoxy-6-[[[(2S,4R)-1-methyl-4-propyl-2-pyrrolidinyl]carbonyl]amino]-1-thio-L-threo-α-D-galacto-octopyranoside], the MIC in the data set with S. epidermidis was 0.1 to 0.2 µg/mL; in the data set with S. aureus, 0.04 to 1.6 µg/mL; in the data set with S. viridans, 0.005 to 0.2 µg/mL; in the data set on S. pneumoniae it was 0.002 to 0.1 µg/mL.

Take `CC[C@@]1(O)C(=O)OCc2c1cc1n(c2=O)Cc2cc3c(CN(C)C)c(O)ccc3nc2-1` [Topotecan, 10-[(dimethylamino)methyl]-4S-ethyl-4,9-dihydroxy-1H-pyrano[3′,4′:6,7]indolizino[1,2-b]quinoline-3,14(4H,12H)-dione, monohydrochloride]: the IC50 in [3] was 0.033 µM; in data set [4], 0.28 µM.

For the molecule `CC(C)(C)NC(=O)[C@@H]1C[C@@H]2CCCC[C@@H]2CN1C[C@@H](O)[C@H](Cc1ccccc1)NC(=O)[C@H](CC(N)=O)NC(=O)c1ccc2ccccc2n1.CS(=O)(=O)O` [Saquinavir, (2S)—N^1—[(1S,2R)-3-[(3S,4aS,8aS)-3-[[(1,1-dimethylethyl)amino]carbonyl]octahydro-2(1H)-isoquinolinyl]-2-hydroxy-1-(phenylmethyl)propyl]-2-[(2-quinolinylcarbonyl)amino]-butanediamide, monomethanesulfonate], the increase of bioavailability in data set [5] is given as 325 fold. Further, the Ki at HIV-2 protease is below 0.0001 µM.

On to `CC(C)CN(C[C@@H](O)[C@H](Cc1ccccc1)NC(=O)O[C@H]1CCOC1)S(=O)(=O)c1ccc(N)cc1` [Amprenavir, N-[(1S,2R)-3-[[(4-aminophenyl)sulfonyl](2-methylpropyl)amino]-2-hydroxy-1-(phenylmethyl)propyl]-carbamic acid, (3S)-tetrahydro-3-furanyl ester], for which the IC50 in the data set on HIV-1 was 0.15 µM.

On to `CC(=O)CCCCn1c(=O)c2c(ncn2C)n(C)c1=O` [Pentoxifylline, 3,7-dihydro-3,7-dimethyl-1-(5-oxohexyl)-1H-purine-2,6-dione], for which the IC50 in [6] is 500 µM; in data set [7], 49 µM; in data set [8] it was 85 µM.

“1-[[4-[2-(hexahydro-1H-azepin-1-yl)ethoxy]phenyl]methyl]-2-(4-hydroxyphenyl)-3-methyl-1H-indol-5-ol, acetate [Bazedoxifene (acetate)]”: the reduction of growth in the data set on MCF-7:C cells is 80%.
